{"source": "patent US4242354A", "about": "“2-(2-Thenolythio)-propionylglycine: method for its preparation and pharmaceutical formulations containing said compound” (Mediolanum Farmaceutici S.r.L., priority 1978, dated 1980)", "key": {"mercuric chloride": {"test_system": "mercuric chloride", "assay": "In vivo protective action against mercurial compounds", "parameters": "species or system male mice (Swiss strain)", "conditions": "mercuric chloride 20 mg/kg ip, mice, 24 hours", "procedure": "Forty male mice (Swiss strain, 22 grams mean bodyweight) were used for the investigation, subdivided into 4 groups treated as follows:\n(1) mercuric chloride, 20 mg/kg/intraperitoneally;\n(4) mercuric chloride 20 mg/kg/intraperitoneally+2-thiopropionylglycine 300 mg/kg/intraperitoneally.\nDeaths occurred were recorded hourly in the first 5 hours, and thereafter after 24 hours."}, "[1]": {"assay": "Stability test: physical properties and weight variations on heating", "assay_type": "physicochemical", "procedure": "(§1) The stability tests were carried out according to the Rogers' nonisothermic method suitably integrated by the evaluation of physical data, melting point, weight variation, and spectrophotometric assay. For each single compound, the tests were performed on a series of samples, with the weight of 100 milligrams, added for the wet tests with 1 ml of distilled water. […] The sample were kept in a thermostat at increasing temperatures, i.e. from 25° to 80° C. […] The temperature, programmed according to the Rogers' formula, resulted to be 40° C. at the end of the first hour, 50° C. at the end of the second hour, 57° C. at the end of the third hour, 63° C. at the end of the fourth hour, 69° C. at the end of the fifth hour, 73° C. at the end of the sixth hour, 77° C. at the end of the seventh hour and, as already specified, 80° C. at the end of the eighth hour.\nStill in Table 5, the sample from 1 to 5 refer, for each of the two compounds, to the dry substance while the samples from 6 to 10 refer to the solution or to the aqueous suspension obtained as above specified.\n(§2) In the case of the wet-treated samples, the final weight was only established on the samples No. 10 brought to dryness at 60° C. under vacuum after an 8-hour heating."}, "physchem": {"assay": "physchem", "procedure": "as §1, §2"}, "[2]": {"assay": "Rogers' nonisothermic method: energies of activation, specific velocities, validity periods", "assay_type": "physicochemical", "conditions": "for stability vs 2-thiopropionylglycine (II): comparison of the two compounds", "procedure": "as §1\nThe data shown in Table 7 were worked out according to the Rogers' method, drawing up the values of the energies of activation of the decomposition reactions under dry and wet conditions, the specific rate constants as well as the validity period."}, "[3]": {"test_system": "SO2-induced experimental bronchitis", "assay": "Experimental bronchitis in the rat (SO2 inhalation)", "assay_type": "in vivo, male rats, Sprague-Dawley strain", "parameters": "key to Macroscopic Examination, significance vs. controls (S) / Visualization of the bronchial tract, significance vs. controls (S) / Microscopic Examination, significance vs. controls (S): h.s.: highly significant", "conditions": "50 mg/kg; for Visualization of the bronchial tract score (E, mean ± standard error): control 2.50 ± 0.26; for Microscopic Examination score (E, mean ± standard error): control 2.75 ± 0.16", "procedure": "For the purpose 40 male rats, Sprague-Dawley strain, 320-370 grams, subdivided into 4 groups each consisting of 10 elements were subjected to the following treatments:\nGroup 1: poisoning treatment (SO2)\nFor the poisoning-induction the animals were subjected to a constant air flow containing SO2 at a 0.03 percent concentration. The poisoning treatment was given for 15 days subjecting the rats, 2 hours daily, to an inhalation of SO2 for 15-minute periods. […] The animals were killed on the day following the last inhalation.\nThe lungs were withdrawn together with the trachea, fixed in 10 percent formalin, and subjected to a macroscopic examination, dipped thereafter into the same fixing fluid for 24 hours, and thereafter for one hour in absolute ethanol.\nThe bronchial tree was thereafter evidenced with alcian blue; moreover, a subsequent staining was made with the Schiff's reagent in order to evidence the muchopolysaccharides.\nEach lung was given the following arbitary score:\n(1) Macroscopic Examination:\n5=large hemorrhagic spots\n(2) Visualization of the Bronchial Tree with Alcian Blue:\n1=almost uniform staining\n3=quite irregular staining.\n(3) Bronchopulmonary Alterations at the Microscopic Examination: […]"}, "[4]": {"test_system": "histamine-induced bronchial spasm", "assay": "Bronchial spasm due to histamine aerosol in the guinea-pig", "assay_type": "in vivo, spotted guinea-pigs, male, Morini strain", "parameters": "key to time of resistance to the spasm, significance vs. controls (S): h.s.: highly significant", "conditions": "50 mg/kg; for time of resistance to the spasm, significance vs. controls (S): one hour; for time of resistance to the spasm (E, mean ± standard error): one hour after treatment, control 114.1 ± 5.4", "procedure": "Thirty spotted guinea-pigs, male, Morini strain, 400-500 g bodyweight, were used for the investigation, subdivided into 5 lots, each consisting of 6 animals. The animals were singly placed in a tightly sealed plexiglas cage into which a 0.1 percent aqueous solution of histamine hydrochloride was aerosolized. The time of resistance to the spasm was calculated from the moment of introduction into the cage up to the time of the appearance of the dyspnea crisis.\nGroup 1: controls with no treatment\nIn any case, the dose was 50 mg/kg."}, "[5]": {"conditions": "sample 1, dry, 1 hour 30 minutes"}, "[6]": {"conditions": "sample 3, dry, 5 hours 15 minutes"}, "[7]": {"conditions": "sample 10, wet, 8 hours, brought to dryness"}, "[8]": {"conditions": "group 3, aerosol (so in the source)"}}, "data": [{"smiles": "CC(SC(=O)c1cccs1)C(=O)NCC(=O)O", "note": "(stereo not drawn) [compound (I), 2-(2-thenoylthio)-propionylglycine]", "values": [{"measurement": "deaths", "setting": "mercuric chloride; 200 mg/kg ip", "value": 10, "unit": "%"}, {"measurement": "deaths", "setting": "mercuric chloride; 300 mg/kg ip", "value": 10, "unit": "%"}, {"measurement": "Color", "setting": "[1]; [5]", "value": "white"}, {"measurement": "Smell", "setting": "[1]; [5]", "value": "almost absent"}, {"measurement": "Weight Fin.", "setting": "[1]; [5]", "value": 95.4, "unit": "mg"}, {"measurement": "Weight Variations", "setting": "[1]; [5]", "value": -5.26, "unit": "%"}, {"measurement": "Color", "setting": "[1]; sample 2, dry, 3 hours", "value": "white"}, {"measurement": "Weight Fin.", "setting": "[1]; sample 2, dry, 3 hours", "value": 94.5, "unit": "mg"}, {"measurement": "Weight Variations", "setting": "[1]; sample 2, dry, 3 hours", "value": -5.03, "unit": "%"}, {"measurement": "Color", "setting": "[1]; [6]", "value": "white"}, {"measurement": "Smell", "setting": "[1]; [6]", "value": "almost absent"}, {"measurement": "Weight Fin.", "setting": "[1]; [6]", "value": 95.1, "unit": "mg"}, {"measurement": "Weight Variations", "setting": "[1]; [6]", "value": -5.37, "unit": "%"}, {"measurement": "Color", "setting": "[1]; sample 4, dry, 8 hours", "value": "white"}, {"measurement": "Smell", "setting": "[1]; sample 4, dry, 8 hours", "value": "almost absent"}, {"measurement": "Weight Fin.", "setting": "[1]; sample 4, dry, 8 hours", "value": 94.9, "unit": "mg"}, {"measurement": "Weight Variations", "setting": "[1]; sample 4, dry, 8 hours", "value": -5.74, "unit": "%"}, {"measurement": "Smell", "setting": "[1]; sample 5, dry, 8 hours", "value": "almost absent"}, {"measurement": "Weight Fin.", "setting": "[1]; sample 5, dry, 8 hours", "value": 194.1, "unit": "mg"}, {"measurement": "Weight Variations", "setting": "[1]; sample 5, dry, 8 hours", "value": -3.67, "unit": "%"}, {"measurement": "Smell", "setting": "[1]; sample 6, wet", "value": "almost absent"}, {"measurement": "Smell", "setting": "[1]; sample 7, wet", "value": "almost absent"}, {"measurement": "Smell", "setting": "[1]; sample 8, wet", "value": "almost absent"}, {"measurement": "Smell", "setting": "[1]; sample 9, wet", "value": "almost absent"}, {"measurement": "Weight Fin.", "setting": "[1]; [7]", "value": 201.3, "unit": "mg"}, {"measurement": "Weight Variations", "setting": "[1]; [7]", "value": -2.94, "unit": "%"}, {"measurement": "Content", "setting": "physchem", "value": 100.0, "unit": "%"}, {"measurement": "E at 292 nm", "setting": "physchem; as such", "value": 0.438}, {"measurement": "remaining at 1.5 h", "setting": "physchem; dry", "value": 99.8, "unit": "%"}, {"measurement": "remaining at 3 h", "setting": "physchem; dry", "value": 99.8, "unit": "%"}, {"measurement": "remaining at 5.25 h", "setting": "physchem; dry", "value": 100, "unit": "%"}, {"measurement": "remaining at 8 h", "setting": "physchem; dry", "value": 99.8, "unit": "%"}, {"measurement": "E at 292 nm", "setting": "physchem; sample 1, dry", "value": 0.440}, {"measurement": "E at 292 nm", "setting": "physchem; sample 2, dry", "value": 0.435}, {"measurement": "E at 292 nm", "setting": "physchem; sample 3, dry", "value": 0.440}, {"measurement": "E at 292 nm", "setting": "physchem; sample 4, dry", "value": 0.440}, {"measurement": "E at 292 nm", "setting": "physchem; sample 6, wet", "value": 0.455}, {"measurement": "E at 292 nm", "setting": "physchem; sample 7, wet", "value": 0.450}, {"measurement": "E at 292 nm", "setting": "physchem; sample 8, wet", "value": 0.435}, {"measurement": "E at 292 nm", "setting": "physchem; sample 9, wet", "value": 0.412}, {"measurement": "stability vs 2-thiopropionylglycine (II)", "setting": "[2]; listed as 2-(2-thenoylthio)-propionyl-glycine (I)", "value": "markedly better stability"}, {"measurement": "stability vs 2-thiopropionylglycine (II)", "setting": "[2]; listed as 2-(2-thenoylthio)-propionylglycine (I)", "value": "markedly more stable than the correspondent 2-thiopropionylglycine (II)"}, {"measurement": "Energy of activation of the decomposition reaction", "setting": "[2]; dry", "value": 12.28, "unit": "kcal/mol"}, {"measurement": "Validity period", "setting": "[2]; dry", "value": "unlimited"}, {"measurement": "K at 25° (specific rate constant)", "setting": "[2]; dry, 25°", "value": 0, "unit": "h⁻¹"}, {"measurement": "Energy of activation of the decomposition reaction", "setting": "[2]; wet", "value": 13.27, "unit": "kcal/mol"}, {"measurement": "Macroscopic Examination, significance vs. controls (S)", "setting": "[3]; group 2, aerosol", "value": "h.s."}, {"measurement": "Microscopic Examination, significance vs. controls (S)", "setting": "[3]; group 2, aerosol", "value": "h.s."}, {"measurement": "Visualization of the bronchial tract, significance vs. controls (S)", "setting": "[3]; group 2, aerosol", "value": "h.s."}, {"measurement": "Visualization of the bronchial tract score (E, mean ± standard error)", "setting": "[3]; group 2, aerosol", "value": "0.87 ± 0.29"}, {"measurement": "Microscopic Examination score (E, mean ± standard error)", "setting": "[3]; group 2, aerosol", "value": "0.87 ± 0.29"}, {"measurement": "Macroscopic Examination, significance vs. controls (S)", "setting": "[3]; [8]", "value": "h.s."}, {"measurement": "Microscopic Examination, significance vs. controls (S)", "setting": "[3]; [8]", "value": "h.s."}, {"measurement": "Visualization of the bronchial tract, significance vs. controls (S)", "setting": "[3]; [8]", "value": "h.s."}, {"measurement": "Visualization of the bronchial tract score (E, mean ± standard error)", "setting": "[3]; [8]", "value": "0.87 ± 0.29"}, {"measurement": "Microscopic Examination score (E, mean ± standard error)", "setting": "[3]; [8]", "value": "0.75 ± 0.31"}, {"measurement": "Macroscopic Examination score (E, mean ± standard error)", "setting": "[3]; group 3, aerosol (so in the source), control 4.00 ± 0.26", "value": "1.12 ± 0.39"}, {"measurement": "Macroscopic Examination, significance vs. controls (S)", "setting": "[3]; group 4, subcutaneous", "value": "h.s."}, {"measurement": "Microscopic Examination, significance vs. controls (S)", "setting": "[3]; group 4, subcutaneous", "value": "h.s."}, {"measurement": "Visualization of the bronchial tract, significance vs. controls (S)", "setting": "[3]; group 4, subcutaneous", "value": "h.s."}, {"measurement": "Visualization of the bronchial tract score (E, mean ± standard error)", "setting": "[3]; group 4, subcutaneous", "value": "0.75 ± 0.31"}, {"measurement": "Microscopic Examination score (E, mean ± standard error)", "setting": "[3]; group 4, subcutaneous", "value": "1.00 ± 0.26"}, {"measurement": "protective action, experimental bronchitis (SO2)", "setting": "[3]; rat", "value": "marked protective action"}, {"measurement": "bronchial-spasm relieving action", "setting": "[4]; all the assessed routes", "value": "remarkable bronchial-spasm relieving action"}, {"measurement": "time of resistance to the spasm, significance vs. controls (S)", "setting": "[4]; group 2, orally", "value": "h.s."}, {"measurement": "time of resistance to the spasm (E, mean ± standard error)", "setting": "[4]; group 2, orally, before treatment 116.00 ± 8.84", "value": "184.7 ± 14.2", "unit": "s"}, {"measurement": "time of resistance to the spasm, significance vs. controls (S)", "setting": "[4]; group 3, aerosol", "value": "h.s."}, {"measurement": "time of resistance to the spasm (E, mean ± standard error)", "setting": "[4]; group 3, aerosol, before treatment 113.00 ± 5.62", "value": "170.3 ± 10.9", "unit": "s"}, {"measurement": "time of resistance to the spasm, significance vs. controls (S)", "setting": "[4]; group 4, intraperitoneally", "value": "h.s."}, {"measurement": "time of resistance to the spasm (E, mean ± standard error)", "setting": "[4]; group 4, intraperitoneally, before treatment 112.16 ± 7.9", "value": "187.2 ± 16.1", "unit": "s"}, {"measurement": "time of resistance to the spasm, significance vs. controls (S)", "setting": "[4]; group 5, rectally", "value": "h.s."}, {"measurement": "time of resistance to the spasm (E, mean ± standard error)", "setting": "[4]; group 5, rectally, before treatment 117.5 ± 6.39", "value": "178.5 ± 11.9", "unit": "s"}]}]}
